Test results taken from PubChem BioAssay (NCI).
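Following 48 hours of exposure in 96-well plates, responses at five concentrations were used to interpolate endpoints linearly. GI50 marks 50% less growth. At the TGI there is no net growth.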

Legend:
Assay in all cases: NCI anticancer screen, dose series, 48 h
[1] = system: 786-0 renal
[2] = system: A498 renal
[3] = system: A549 NSCLC
[4] = system: ACHN renal
[5] = system: BT-549 breast
[6] = system: CAKI-1 renal
[7] = system: CCRF-CEM leukemia
[8] = system: COLO 205 colon
[9] = system: DU-145 prostate
[10] = system: EKVX NSCLC
[11] = system: HCC-2998 colon
[12] = system: HCT-116 colon
[13] = system: HCT-15 colon
[14] = system: HL-60(TB) leukemia
[15] = system: HOP-62 NSCLC
[16] = system: HOP-92 NSCLC
[17] = system: HS 578T breast
[18] = system: HT29 colon
[19] = system: IGROV1 ovarian
[20] = system: K-562 leukemia
[21] = system: KM12 colon
[22] = system: LOX IMVI melanoma
[23] = system: M14 melanoma
[24] = system: MALME-3M melanoma
[25] = system: MCF7 breast
[26] = system: MDA-MB-231 breast
[27] = system: MDA-MB-435
[28] = system: MOLT-4 leukemia
[29] = system: NCI-H226 lung
[30] = system: NCI-H23 lung
[31] = system: NCI-H460 lung
[32] = system: NCI-H522 lung
[33] = system: NCI/ADR-RES ovarian
[34] = system: OVCAR-3 ovarian
[35] = system: OVCAR-4 ovarian
[36] = system: OVCAR-5 ovarian
[37] = system: OVCAR-8 ovarian
[38] = system: PC-3 prostate
[39] = system: RPMI-8226 leukemia
[40] = system: RXF 393 renal
[41] = system: SF-268 CNS
[42] = system: SF-295 CNS
[43] = system: SK-MEL-2 melanoma
[44] = system: SK-MEL-28 melanoma
[45] = system: SK-MEL-5 melanoma
[46] = system: SK-OV-3 ovarian
[47] = system: SN12C renal
[48] = system: SNB-19 CNS
[49] = system: SNB-75 CNS
[50] = system: SR leukemia
[51] = system: SW-620 colon
[52] = system: T-47D breast
[53] = system: TK-10 renal
[54] = system: U251 CNS
[55] = system: UACC-257 melanoma
[56] = system: UACC-62 melanoma
[57] = system: UO-31 renal
[58] = system: SF-539 CNS

COc1ccc(-c2[nH]ncc2Nc2cc(OC)c(OC)c(OC)c2)cc1 showed a GI50 [1] of 6.2 µM, a TGI [1] greater than 65.4 µM and a GI50 [2] of 2.98 µM. It also gave a TGI [2] greater than 57.4 µM, a GI50 [3] of 3.39 µM and a TGI [3] greater than 100 µM. For the same compound, the GI50 [4] was 10.3 µM, the TGI [4] was greater than 100 µM and the GI50 [5] was 9.99 µM. For the same compound, the TGI [5] was greater than 89.6 µM, the GI50 [6] was 5.64 µM and the TGI [6] was greater than 100 µM. It also gave a GI50 [7] of 1.5 µM, a TGI [7] of 19.4 µM and a GI50 [8] of 1.61 µM. It also gave a TGI [8] of 6.32 µM, a GI50 [9] of 4 µM and a TGI [9] of 64.1 µM. The GI50 [10] was 1.93 µM, the TGI [10] was greater than 49.4 µM and the GI50 [11] was 2.17 µM. For the same compound, the TGI [11] was 37.9 µM, the GI50 [12] was 1.04 µM and the TGI [12] was greater than 43.2 µM. It also gave a GI50 [13] of 0.702 µM, a TGI [13] greater than 100 µM and a GI50 [14] of 0.304 µM. The TGI [14] was 1.57 µM, the GI50 [15] was 3.32 µM and the TGI [15] was greater than 95.3 µM. For the same compound, the GI50 [16] was greater than 62.9 µM, the TGI [16] was greater than 100 µM and the GI50 [17] was 1.3 µM. The TGI [17] was 4.65 µM, the GI50 [18] was 0.482 µM and the TGI [18] was greater than 100 µM. For the same compound, the GI50 [19] was 2.51 µM, the TGI [19] was greater than 100 µM and the GI50 [20] was 0.42 µM. It also gave a TGI [20] greater than 52.3 µM, a GI50 [21] of 0.63 µM and a TGI [21] of 22.7 µM. The GI50 [22] was 6.13 µM, the TGI [22] was greater than 100 µM and the GI50 [23] was 0.906 µM. The TGI [23] was greater than 100 µM, the GI50 [24] was 2.04 µM and the TGI [24] was greater than 26.1 µM. The GI50 [25] was 0.736 µM, the TGI [25] was greater than 100 µM and the GI50 [26] was 3.34 µM. It also gave a TGI [26] greater than 100 µM, a GI50 [27] of 0.177 µM and a TGI [27] of 0.395 µM. It also gave a GI50 [28] of 2.12 µM, a TGI [28] of 63.7 µM and a GI50 [29] of 29.1 µM. For the same compound, the TGI [29] was greater than 100 µM, the GI50 [30] was 4.04 µM and the TGI [30] was greater than 100 µM. It also gave a GI50 [31] of 2.68 µM, a TGI [31] greater than 63.6 µM and a GI50 [32] of 1.98 µM. The TGI [32] was 49.3 µM, the GI50 [33] was 1.86 µM and the TGI [33] was 25 µM. The GI50 [34] was 0.962 µM, the TGI [34] was 3.69 µM and the GI50 [35] was 5.01 µM. The TGI [35] was greater than 100 µM, the GI50 [36] was 5.26 µM and the TGI [36] was greater than 100 µM. The GI50 [37] was 6.36 µM, the TGI [37] was greater than 100 µM and the GI50 [38] was 3.31 µM. The TGI [38] was greater than 100 µM, the GI50 [39] was 1.38 µM and the TGI [39] was 5.04 µM. For the same compound, the GI50 [40] was 1.92 µM, the TGI [40] was greater than 22.3 µM and the GI50 [41] was 6.83 µM. It also gave a TGI [41] greater than 100 µM, a GI50 [42] of 1.31 µM and a TGI [42] greater than 21.1 µM. The GI50 [43] was 10.3 µM, the TGI [43] was greater than 100 µM and the GI50 [44] was 2.57 µM. The TGI [44] was greater than 100 µM, the GI50 [45] was 1.34 µM and the TGI [45] was 23 µM. For the same compound, the GI50 [46] was 3.09 µM, the TGI [46] was greater than 77.8 µM and the GI50 [47] was 7.18 µM. The TGI [47] was greater than 100 µM, the GI50 [48] was 4.86 µM and the TGI [48] was greater than 100 µM. The GI50 [49] was 1.52 µM, the TGI [49] was greater than 100 µM and the GI50 [50] was 0.36 µM. The TGI [50] was greater than 100 µM, the GI50 [51] was 0.558 µM and the TGI [51] was greater than 100 µM. The GI50 [52] was 4.07 µM, the TGI [52] was greater than 100 µM and the GI50 [53] was greater than 32 µM. For the same compound, the TGI [53] was 96.9 µM, the GI50 [54] was 2.21 µM and the TGI [54] was greater than 100 µM. For the same compound, the GI50 [55] was 34 µM, the TGI [55] was greater than 100 µM and the GI50 [56] was 0.704 µM. It also gave a TGI [56] of 69.8 µM, a GI50 [57] of 3.29 µM and a TGI [57] greater than 100 µM.
In the case of COc1ccc2c(c1)-c1c(c3cc(OC)ccc3n(CCN(C)C)c1=O)C2=O, the GI50 [1] is reported as 2.35 µM, the TGI [1] is reported as 9.42 µM and the GI50 [2] is reported as 1.36 µM. For the same compound, the TGI [2] was 6.48 µM, the GI50 [3] was 0.388 µM and the TGI [3] was 2.97 µM. It also gave a GI50 [4] of 0.352 µM, a TGI [4] of 7.07 µM and a GI50 [5] of 5.84 µM. For the same compound, the TGI [5] was 12.9 µM, the GI50 [6] was 1.77 µM and the TGI [6] was 18.8 µM. The GI50 [7] was 0.199 µM, the TGI [7] was 1.76 µM and the GI50 [8] was 0.461 µM. It also gave a TGI [8] of 4.7 µM, a GI50 [9] of 0.565 µM and a TGI [9] of 3.54 µM. The GI50 [10] was 1.37 µM, the TGI [10] was 10.2 µM and the GI50 [11] was 1.18 µM. The TGI [11] was 9.24 µM, the GI50 [12] was 0.241 µM and the TGI [12] was 6.85 µM. It also gave a GI50 [13] of 0.629 µM, a TGI [13] of 13.1 µM and a GI50 [14] of 1.38 µM. For the same compound, the TGI [14] was 5.97 µM, the GI50 [15] was 0.676 µM and the TGI [15] was 12.1 µM. The GI50 [16] was 2.65 µM, the TGI [16] was 50 µM and the GI50 [17] was 1.7 µM. For the same compound, the TGI [17] was 7.81 µM, the GI50 [18] was 0.24 µM and the TGI [18] was 1.2 µM. For the same compound, the GI50 [19] was 0.243 µM, the TGI [19] was 2.31 µM and the GI50 [20] was 0.28 µM. It also gave a TGI [20] of 3.09 µM, a GI50 [21] of 0.304 µM and a TGI [21] of 1.28 µM. The GI50 [22] was 0.658 µM, the TGI [22] was 1.85 µM and the GI50 [23] was 1.8 µM. The TGI [23] was 10.2 µM, the GI50 [24] was 1.17 µM and the TGI [24] was 5.65 µM. It also gave a GI50 [25] of 0.221 µM, a TGI [25] of 5.3 µM and a GI50 [26] of 1.54 µM. The TGI [26] was 8.07 µM, the GI50 [27] was 0.95 µM and the TGI [27] was 5.73 µM. The GI50 [28] was 0.174 µM, the TGI [28] was 0.953 µM and the GI50 [29] was 0.665 µM. For the same compound, the TGI [29] was 10.4 µM, the GI50 [30] was 1.59 µM and the TGI [30] was 8.82 µM. It also gave a GI50 [31] of 0.341 µM, a TGI [31] of 2.09 µM and a GI50 [32] of 0.0843 µM. The TGI [32] was 0.59 µM, the GI50 [33] was 0.659 µM and the TGI [33] was 7.41 µM. For the same compound, the GI50 [34] was 0.843 µM, the TGI [34] was 4.73 µM and the GI50 [35] was 0.799 µM. The TGI [35] was 4 µM, the GI50 [36] was 3.14 µM and the TGI [36] was 12.7 µM. The GI50 [37] was 0.31 µM, the TGI [37] was 5.59 µM and the GI50 [38] was 1.49 µM. For the same compound, the TGI [38] was 8.88 µM, the GI50 [39] was 0.445 µM and the TGI [39] was 1.97 µM. For the same compound, the GI50 [40] was 1.59 µM, the TGI [40] was 7.23 µM and the GI50 [41] was 0.362 µM. For the same compound, the TGI [41] was 6.21 µM, the GI50 [42] was 0.714 µM and the TGI [42] was 2.99 µM. The GI50 [58] was 1.99 µM, the TGI [58] was 8.58 µM and the GI50 [44] was 2.59 µM. For the same compound, the TGI [44] was 8.73 µM, the GI50 [45] was 2.6 µM and the TGI [45] was 8.92 µM. The GI50 [46] was 1.73 µM, the TGI [46] was 8.77 µM and the GI50 [47] was 0.32 µM. For the same compound, the TGI [47] was 6.16 µM, the GI50 [48] was 0.812 µM and the TGI [48] was 7.18 µM. The GI50 [49] was 1.36 µM, the TGI [49] was 7.49 µM and the GI50 [50] was 0.592 µM. It also gave a TGI [50] of 2.64 µM, a GI50 [51] of 0.208 µM and a TGI [51] of 2.95 µM. It also gave a GI50 [52] of 3.23 µM, a TGI [52] of 11.4 µM and a GI50 [53] of 1.65 µM. The TGI [53] was 6.98 µM, the GI50 [54] was 0.443 µM and the TGI [54] was 6.77 µM. It also gave a GI50 [55] of 1.3 µM, a TGI [55] of 4.78 µM and a GI50 [56] of 3.11 µM. It also gave a TGI [56] of 9.73 µM, a GI50 [57] of 0.127 µM and a TGI [57] of 1.23 µM.
